For 19 compounds, TGI and GI50 results are on record in PubChem BioAssay (NCI).

“And” between values parts separate entries of the source, which are not always exact repeats. Identical values can stand only once.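 96-well plates; 48 h exposure; 5 concentrations. Endpoints by linear interpolation between flanking doses. Not reached: highest tested concentration assigned. GI50: concentration for 50% inhibition of growth. The concentration for full growth arrest is given as TGI.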

Holding throughout (assay): NCI-60 cell line screen, 48 h
Assay [1] relates to BT-549 breast.
The subject of assay [2] is HCT-15 colon.
Assay [3] deals with HL-60(TB) leukemia.
Assay [4] has as its system HS 578T breast.
Assay [5] deals with HT29 colon.
The test system of assay [6] is LOX IMVI melanoma.
For assay [7], the system named is SR leukemia.
Assay [8] has as its system SW-620 colon.
Assay [9] relates to T-47D breast.
Assay [10] relates to UACC-257 melanoma.

`CCOc1cc2c(NCCCN(CCO)CCO)ncnc2c(OCC)c1OCC`: the TGI in [1], in assay [2], in [3], in assay [4], in [5] and in assay [6] was more than 100 µM in each case. Besides, the TGI in [7], in [8], in [9] and in assay [10] was more than 100 µM in each case.

On to `Cn1c(=O)c(Oc2ccccc2F)cc2cnc(NC3CCOCC3)nc21`, for which the GI50 in [1], in assay [2], in assay [3], in [4], in assay [5] and in assay [6] was more than 25 µM each time. Moreover, the GI50 in assay [7], in [8], in [9] and in assay [10] was more than 25 µM throughout. Also, the TGI in assay [1], in assay [2], in [3], in assay [4], in assay [5] and in assay [6] was more than 25 µM each time. Moreover, the TGI in assay [7], in assay [8], in assay [9] and in assay [10] was more than 25 µM in each case.

Turning to `COc1ccccc1NC(=O)n1nc(N)c2ccccc21`, the GI50 in assay [1] was 39.3 µM; in assay [2] it was 63.6 µM; in assay [3], 55 µM; in assay [4], 36.3 µM; in assay [5], more than 73.4 µM; in assay [6] it was 82 µM. Further, the GI50 in assay [7] is 92.4 µM; in assay [8], more than 100 µM; in [9], 12.1 µM; in assay [10], more than 100 µM. Also, the TGI in assay [1], in assay [2], in [3], in assay [4], in assay [5] and in [6] was more than 100 µM in each case. Further, the TGI in [7], in assay [8], in assay [9] and in assay [10] was more than 100 µM throughout.

With `COc1cc2c3c(c1)c1cc(OC)c(OC)cc1c[n+]3CC2`, the GI50 in assay [1] is 7.23 µM; in [2], more than 100 µM; in [3] it was more than 100 µM; in [5], 37.2 µM; in assay [6], 35.5 µM; in assay [8], 26.6 µM. Moreover, the GI50 in [9] was 6.74 µM; in assay [10], 15.9 µM. Moreover, the TGI was 22.7 µM and 55.2 µM in assay [1]; more than 100 µM in assay [2]; more than 100 µM in assay [3]; 20.6 µM in assay [4]; 50 µM and > 100 µM in assay [5]; 50 µM and > 100 µM in assay [6]. The TGI was 50 µM in assay [7]; more than 100 µM in [8]; 34.2 µM and 72.4 µM in [9]; 50 µM and 64.7 µM in [10].

On to `C=C1C(=O)O[C@H]2[C@H]1CC/C(COC(=O)NCc1ccc(Cn3c(=O)sn(CCCCl)c3=O)cc1)=C\CC[C@@]1(C)O[C@@H]21`, for which the GI50 in [1] was 1.48 µM; in [2] it was 1.94 µM; in assay [3] it was 0.967 µM; in assay [4], 5.64 µM; in assay [5], 2.46 µM; in assay [6], 1.58 µM. The GI50 in assay [8] was 1.23 µM; in [9] it was 1.97 µM; in assay [10] it was 1.61 µM. Moreover, the TGI amounted to 2.91 µM in assay [1]; 4.25 µM in [2]; 3.77 µM in assay [3]; 49 µM in [4]; 5.58 µM in assay [5]; 3.09 µM in assay [6]. Besides, the TGI in assay [8] was determined as 3.31 µM; in assay [9], 5.58 µM; in assay [10], 3.41 µM.

Consider `O=C1C=C(Br)C(=O)C12CCc1ccccc12` (centres undefined), for which the TGI in assay [1] is 34.2 µM; in assay [2], 19.7 µM; in assay [3], 25.2 µM; in [4] it was more than 82.5 µM; in [5] it was 45 µM; in assay [6], 31.7 µM. For the same compound, the TGI in assay [7] is 17.3 µM; in assay [8] it was 16.2 µM; in assay [9] it was 50.4 µM; in assay [10], 41.3 µM.

Take `CC(C)(C)NCc1cc(C(C)(C)C)cc(-c2ccc(Cl)cc2)c1O`: the TGI in assay [1] worked out at 27.9 µM; in [2] it was 25.7 µM; in assay [3] it was 23.4 µM; in assay [4], 29 µM; in assay [5] it was 53.2 µM; in assay [7], 40.4 µM. The compound also came in with a TGI in assay [10] of 50.3 µM.

For the compound `Cc1nc2ccc(Nc3nc(NCCN4CCOCC4)nc(Nc4ccc(F)cc4)n3)cc2n1Cc1ccccc1`, the GI50 is 2.13 µM in assay [1]; 2.16 µM in assay [2]; 1.82 µM in [3]; 1.87 µM in assay [4]; 1.46 µM in assay [7]; 3.24 µM in assay [8]. In addition, the GI50 was 2.66 µM in assay [9] and 1.74 µM in assay [10]. Moreover, the TGI in assay [1] was 9.33 µM; in assay [2], 5.68 µM; in assay [3] it was 4.72 µM; in [4], 6.66 µM; in assay [7] it was 5.23 µM; in assay [8] it was 10.7 µM. Further, the TGI worked out at 18.8 µM in [9] and 3.27 µM in [10].

Consider `CCOC(=O)c1[nH]c(-c2ccc(Cl)cc2)cc1-c1cccnc1`, for which the GI50 is 0.27 µM in [1]; 0.437 µM in assay [2]; 0.35 µM in assay [5]; 0.659 µM in [6]; 2.87 µM in [8]; 0.612 µM in assay [9]. The GI50 in assay [10] was more than 100 µM. For the same compound, the TGI in assay [1] was 1.46 µM; in assay [2], more than 100 µM; in assay [5] it was more than 100 µM; in assay [6] it was more than 100 µM; in [8], more than 100 µM; in assay [9], more than 100 µM. This compound also registered a TGI in [10] of more than 100 µM.

Take `OCC1OC(n2ccc3c(NO)ncnc32)C(O)C1O` (centres undefined): the GI50 is 0.193 µM in [1]; 0.118 µM in assay [2]; 0.214 µM in assay [3]; 0.332 µM in [4]; 0.13 µM in [5]; 0.0665 µM in [6]. The GI50 was 0.0895 µM in assay [8], 0.169 µM in [9] and 0.232 µM in assay [10]. The TGI in assay [1] is 0.764 µM; in assay [2] it was 1.52 µM; in assay [3], 0.638 µM; in [4], more than 24.1 µM; in [5], 0.94 µM; in assay [6], 1.27 µM. For the same compound, the TGI in [8] was determined as 3.23 µM; in assay [9], 1.96 µM; in assay [10] it was 0.866 µM.

Take `Cn1ncc2c(N)nc(N3CCCCC3)nc21`: the GI50 was 31.9 µM in [1]; 26.2 µM in assay [2]; 36 µM in [3]; 28.3 µM in [4]; 22.5 µM in [5]; 22.7 µM in [6]. The GI50 was 31 µM in assay [8], 3.75 µM in assay [9] and 54.4 µM in [10]. Further, the TGI in assay [1] was more than 100 µM; in [2], 82.5 µM; in assay [3] it was more than 100 µM; in assay [4] it was 76.3 µM; in [5] it was 68.6 µM; in assay [6], 51.4 µM. The TGI in assay [8] was more than 100 µM; in assay [9], 34.6 µM; in [10] it was more than 100 µM.

Regarding `Nc1ccc2c(c1)NCCN2`, the TGI was more than 100 µM in assay [1]; more than 100 µM in [2]; 89.4 µM in assay [3]; more than 100 µM in assay [4]; more than 100 µM in [5]; more than 100 µM in assay [6]. Moreover, the TGI in [7] and in assay [10] was more than 100 µM in each case.

As for `Clc1ccc2[nH]cc(-c3nc(-c4c[nH]c5ncccc45)cs3)c2c1`, the GI50 in assay [1] is 4.85 µM; in [2], 2.6 µM; in [3], 2.89 µM; in [4], 7.59 µM; in assay [6], 2.71 µM; in assay [8], 3.08 µM. Also, the GI50 in assay [9] is 4.88 µM; in assay [10], 2.56 µM. In addition, the TGI is 17.1 µM in [1]; 7.9 µM in assay [2]; 45.6 µM in assay [3]; more than 100 µM in [4]; 12.1 µM in [6]; 11.6 µM in [8]. In addition, the TGI in [9] was found to be 33.7 µM; in assay [10], 6.78 µM.

For the compound `COC(=O)c1sc(C(=O)OC)c2c1CSC2`, the TGI in assay [1], in [2], in assay [3], in [4], in [5] and in assay [6] was more than 100 µM each time. The TGI in [7], in [8] and in [10] was more than 100 µM each time.

For `N#Cc1c(-c2ccccc2)cc(-c2ccc(Nc3nc(Nc4ccc(Cl)cc4)nc(Nc4ccc(Cl)cc4)n3)cc2)nc1N`, the GI50 in [1] is 5.2 µM; in assay [2] it was 1.56 µM; in assay [3] it was 1.71 µM; in [4] it was 1.2 µM; in [5] it was 3.8 µM; in [6], 1.85 µM. Further, the GI50 was 1.91 µM in [8], 1.6 µM in assay [9] and 1.92 µM in assay [10]. Also, the TGI in [1] stood at 24.2 µM; in assay [2] it was 5.1 µM; in [3], 5.35 µM; in assay [4], 6.02 µM; in assay [5], 16.5 µM; in assay [6] it was 4.33 µM. Moreover, the figures for the TGI in [8], in assay [9] and in assay [10] were 4.82 µM, 4.37 µM and 4.47 µM, respectively.

Take `NC(=O)c1cc(Br)cc(C2CCCCC2)c1O`: the GI50 in assay [1] is 13.6 µM; in assay [2], 13.7 µM; in [3] it was 20.9 µM; in assay [5], 16.8 µM; in assay [6], 13.2 µM; in assay [7] it was 14.2 µM. Also, the GI50 in assay [8] is 15.5 µM; in assay [9] it was 11.5 µM; in [10], 16.3 µM. Moreover, the TGI in assay [1] is 26.4 µM; in assay [2], 30.7 µM; in assay [3] it was 46.3 µM; in [5], 32 µM; in assay [6], 26 µM; in assay [7], 34.6 µM. Also, the values for the TGI in [8], in assay [9] and in [10] were 29.8 µM, 27 µM and 30.1 µM, respectively.

Consider `COc1cc2c3c(n(CCCNCCN)c(=O)c2cc1OC)-c1cc2c(cc1C3=O)OCO2`, for which the GI50 in [1] is 1.56 µM; in [3], 0.682 µM; in [4], 0.419 µM; in assay [5], 1.08 µM; in [6] it was 0.0299 µM; in [8], 0.377 µM. Further, the GI50 in assay [9] is more than 100 µM; in assay [10], 1.95 µM. Besides, the TGI in assay [1] is 9.7 µM; in [2], more than 40.3 µM; in assay [3] it was 3.66 µM; in assay [4], 4.76 µM; in assay [5] it was 10.4 µM; in assay [6] it was 0.244 µM. The TGI in assay [8] is 3.9 µM; in assay [9], more than 100 µM; in assay [10], 14.1 µM.

As for `CN(C)N1C(=O)c2ccccc2NC1c1ccccc1` (centres undefined), the TGI in assay [1], in assay [2], in [4], in [5], in assay [6] and in assay [8] was more than 100 µM each time. For the same compound, the TGI in assay [9] and in assay [10] was more than 100 µM throughout.

`O=S(=O)(NCC1CCC(CNc2ccc(Cl)cc2)CC1)c1ccc(-c2ccccc2)cc1` (centres undefined): the GI50 in assay [1] was more than 50 µM; in assay [2], more than 50 µM; in [3], more than 50 µM; in assay [4], 12.7 µM; in assay [6] it was 45.7 µM; in assay [7] it was more than 50 µM. Moreover, the GI50 in assay [8] and in [10] was more than 50 µM in each case. In addition, the TGI in assay [1], in assay [2], in assay [3], in assay [4], in assay [6] and in assay [7] was more than 50 µM in each case. The TGI in assay [8] and in assay [10] was more than 50 µM each time.
